{"source": "ChEMBL document CHEMBL5107966", "about": "“Cascade synthetic strategies opening access to medicinal-relevant aliphatic 3- and 4-membered N-heterocyclic scaffolds” (Eur J Med Chem, 2022)", "key": {"[1]": {"tested_on": "Enterococcus faecium", "test": "Antimicrobial activity against Enterococcus faecium incubated for 18 to 24 hrs", "assay_type": "functional", "settings": "time 18-24 hrs"}, "[2]": {"tested_on": "Enterobacter cloacae", "test": "Antimicrobial activity against Enterobacter cloacae incubated for 18 to 24 hrs", "assay_type": "functional", "settings": "time 18-24 hrs"}, "[3]": {"tested_on": "Staphylococcus aureus", "test": "Antimicrobial activity against Staphylococcus aureus incubated for 18 to 24 hrs", "assay_type": "functional", "settings": "time 18-24 hrs"}, "[4]": {"tested_on": "Pseudomonas aeruginosa", "test": "Antimicrobial activity against Pseudomonas aeruginosa incubated for 18 to 24 hrs", "assay_type": "functional", "settings": "time 18-24 hrs"}, "[5]": {"tested_on": "HepG2", "test": "Antiproliferative activity against human HepG2 cells assessed as reduction in cell viability incubated for 72 hrs by CCK-8 assay", "assay_type": "functional, cell-based", "settings": "HepG2, 72 h"}, "[6]": {"tested_on": "U-251", "test": "Antiproliferative activity against human U-251 cells assessed as reduction in cell viability incubated for 72 hrs by CCK-8 assay", "assay_type": "functional, cell-based", "settings": "U-251, 72 h"}, "[7]": {"tested_on": "HCT-116", "test": "cells", "settings": "Homo sapiens, HCT-116, 72 h"}, "[8]": {"tested_on": "A2780", "test": "Cytotoxicity against human A2780 cells", "assay_type": "functional, cell-based"}, "[9]": {"tested_on": "HCT-116", "test": "Cytotoxicity against human HCT-116 cells", "assay_type": "functional, cell-based"}, "[10]": {"tested_on": "HeLa", "test": "Cytotoxicity against human HeLa cells"}, "[11]": {"tested_on": "A549", "test": "Cytotoxicity against human A549 cells"}, "[12]": {"tested_on": "RAW264.7", "test": "Inhibition of NO release in mouse RAW264.7 incubated for 15 mins by fluoroscence-luminescence reader infinite M200 Pro analysis", "assay_type": "functional, cell-based", "settings": "RAW264.7, 0.25 h"}, "[13]": {"tested_on": "RAW264.7", "test": "Cytotoxicity against mouse RAW264.7 by WST-1 vital dye reagent method", "assay_type": "functional, cell-based"}, "[14]": {"tested_on": "A-431", "test": "Antiproliferative activity against human A-431 cells assessed as reduction in cell viability incubated for 72 hrs by CCK-8 assay", "assay_type": "functional, cell-based", "settings": "A-431, 72 h"}, "[15]": {"tested_on": "HCT-116", "test": "Cytotoxicity against human HCT-116 cells assessed as cell viability incubated for 24 hrs by MTT assay", "assay_type": "functional, cell-based", "settings": "HCT-116, 24 h"}, "[16]": {"tested_on": "Escherichia coli", "test": "Antimicrobial activity against Escherichia coli ATCC 8739", "assay_type": "functional"}, "[17]": {"tested_on": "Pseudomonas aeruginosa", "test": "Antimicrobial activity against Pseudomonas aeruginosa MCCB 0035", "assay_type": "functional"}, "[18]": {"tested_on": "Staphylococcus aureus", "test": "Antimicrobial activity against Staphylococcus aureus ATCC 29213", "assay_type": "functional"}, "[19]": {"tested_on": "Aspergillus niger", "test": "Antimicrobial activity against Aspergillus niger […]", "assay_type": "functional"}, "[20]": {"tested_on": "Candida albicans", "test": "Antimicrobial activity against Candida albicans NCIM 2087", "assay_type": "functional"}, "[21]": {"tested_on": "Aspergillus fumigatus", "test": "Antimicrobial activity against Aspergillus fumigatus NCIM 2081", "assay_type": "functional"}}, "data": [{"molecule": "Cc1ccc(C(OC(=O)C2N=C2c2ccccc2Br)C(=O)NC(C)(C)C)cc1", "note": "(configuration not stated)", "values": [{"measurement": "MIC", "setting": "[1]", "result": 16, "unit": "µg/mL"}, {"measurement": "MIC", "setting": "[2]", "result": 75, "unit": "µg/mL"}, {"measurement": "MIC", "setting": "[3]", "result": 16, "unit": "µg/mL"}, {"measurement": "MIC", "setting": "[4]", "result": 150, "unit": "µg/mL"}]}, {"molecule": "COc1ccc(C2CN(c3cccc(C#N)n3)C2)cc1-c1ccnc(N)c1", "values": [{"measurement": "EC50", "setting": "[5]", "result": 5.66, "unit": "µM"}, {"measurement": "EC50", "setting": "[6]", "result": 0.03, "unit": "µM"}, {"measurement": "EC50", "setting": "[7]", "result": 0.36, "unit": "µM"}]}, {"molecule": "COc1ccc(C2NC2c2cc(OC)c(OC)c(OC)c2)cc1", "note": "(configuration not stated)", "values": [{"measurement": "IC50", "setting": "[8]", "result": 4.68, "unit": "µM"}, {"measurement": "IC50", "setting": "[9]", "result": 5.44, "unit": "µM"}, {"measurement": "IC50", "setting": "[10]", "result": 4.93, "unit": "µM"}, {"measurement": "IC50", "setting": "[11]", "result": 8.74, "unit": "µM"}]}, {"molecule": "Nc1cccc([C@@H]2[C@H](Oc3ccc4ccccc4c3)C(=O)N2CCCN2CCOCC2)c1", "values": [{"measurement": "IC50", "setting": "[12]", "result": 5.73, "unit": "µM"}, {"measurement": "IC50", "setting": "[13]", "result": "> 500", "unit": "µM"}]}, {"molecule": "COc1cc(-c2cc(C3CN(c4cccc(C#N)n4)C3)ccc2OC)ccn1", "values": [{"measurement": "EC50", "setting": "[5]", "result": 0.46, "unit": "µM"}, {"measurement": "EC50", "setting": "[6]", "result": 1.2, "unit": "µM"}, {"measurement": "EC50", "setting": "[14]", "result": 0.7, "unit": "µM"}, {"measurement": "EC50", "setting": "[7]", "result": 15, "unit": "µM"}]}, {"molecule": "CCOP(=O)(O)C1CN1C1CCCCC1", "note": "(configuration not stated)", "values": [{"measurement": "IC50", "setting": "[15]", "result": 16.1, "unit": "µM"}]}, {"molecule": "CCOP(=O)(O)C1CN1C(C)c1ccc2ccccc2c1", "note": "(configuration not stated)", "values": [{"measurement": "IC50", "setting": "[15]", "result": 12.3, "unit": "µM"}]}, {"molecule": "CC1(C)S[C@@H]2[C@H](NC(=O)[C@H](N)c3ccccc3)C(=O)N2[C@H]1C(=O)O", "note": "[AMPICILLIN]", "values": [{"measurement": "MIC", "setting": "[16]", "result": 1, "unit": "µg/mL"}, {"measurement": "MIC", "setting": "[17]", "result": 4, "unit": "µg/mL"}, {"measurement": "MIC", "setting": "[18]", "result": 2, "unit": "µg/mL"}]}, {"molecule": "Clc1ccccc1C(c1ccccc1)(c1ccccc1)n1ccnc1", "note": "[CLOTRIMAZOLE]", "values": [{"measurement": "MIC", "setting": "[19]", "result": 16, "unit": "µg/mL"}, {"measurement": "MIC", "setting": "[20]", "result": 4, "unit": "µg/mL"}, {"measurement": "MIC", "setting": "[21]", "result": 1, "unit": "µg/mL"}]}, {"molecule": "CCOP(=O)(O)C1CN1Cc1ccccc1", "note": "(configuration not stated)", "values": [{"measurement": "IC50", "setting": "[15]", "result": 7.79, "unit": "µM"}]}, {"molecule": "COc1cccc2c1C(=O)c1c(O)c3c(c(O)c1C2=O)C[C@@](O)(C(=O)CO)C[C@@H]3O[C@H]1C[C@H](N)[C@H](O)[C@H](C)O1", "note": "[DOXORUBICIN]", "values": [{"measurement": "EC50", "setting": "[5]", "result": 0.67, "unit": "µM"}, {"measurement": "EC50", "setting": "[6]", "result": 0.07, "unit": "µM"}, {"measurement": "EC50", "setting": "[14]", "result": 0.7, "unit": "µM"}, {"measurement": "EC50", "setting": "[7]", "result": 0.16, "unit": "µM"}]}, {"molecule": "COc1cc([C@@H]2c3cc4c(cc3[C@@H](O[C@@H]3O[C@@H]5CO[C@@H](C)O[C@H]5[C@H](O)[C@H]3O)[C@H]3COC(=O)[C@H]23)OCO4)cc(OC)c1O", "note": "[ETOPOSIDE]", "values": [{"measurement": "IC50", "setting": "[15]", "result": 26.1, "unit": "µM"}]}, {"molecule": "CC[C@@]1(O)C(=O)OCc2c1cc1n(c2=O)Cc2cc3ccccc3nc2-1", "note": "[CAMPTOTHECIN]", "values": [{"measurement": "IC50", "setting": "[15]", "result": 0.00201, "unit": "µM"}]}, {"molecule": "Cc1ccc(S(=O)(=O)N2C(=O)C(Cl)[C@H]2c2cccc(F)c2)cc1", "note": "(some centres not stated)", "values": [{"measurement": "MIC", "setting": "[16]", "result": 2, "unit": "µg/mL"}, {"measurement": "MIC", "setting": "[17]", "result": 16, "unit": "µg/mL"}, {"measurement": "MIC", "setting": "[18]", "result": 8, "unit": "µg/mL"}, {"measurement": "MIC", "setting": "[19]", "result": 16, "unit": "µg/mL"}, {"measurement": "MIC", "setting": "[20]", "result": 8, "unit": "µg/mL"}, {"measurement": "MIC", "setting": "[21]", "result": 16, "unit": "µg/mL"}]}, {"molecule": "O=C(O)C1N=C1c1ccccc1", "note": "(configuration not stated)", "values": [{"measurement": "MIC", "setting": "[1]", "result": 9, "unit": "µg/mL"}, {"measurement": "MIC", "setting": "[2]", "result": 9, "unit": "µg/mL"}, {"measurement": "MIC", "setting": "[3]", "result": 9, "unit": "µg/mL"}, {"measurement": "MIC", "setting": "[4]", "result": 9, "unit": "µg/mL"}]}, {"molecule": "Cc1ccc(S(=O)(=O)N2C(=O)C(Cl)[C@H]2c2ccccc2F)cc1", "note": "(some centres not stated)", "values": [{"measurement": "MIC", "setting": "[16]", "result": 4, "unit": "µg/mL"}, {"measurement": "MIC", "setting": "[17]", "result": 32, "unit": "µg/mL"}, {"measurement": "MIC", "setting": "[18]", "result": 4, "unit": "µg/mL"}, {"measurement": "MIC", "setting": "[19]", "result": 16, "unit": "µg/mL"}, {"measurement": "MIC", "setting": "[20]", "result": 16, "unit": "µg/mL"}, {"measurement": "MIC", "setting": "[21]", "result": 4, "unit": "µg/mL"}]}, {"molecule": "O=C1[C@@H](Oc2ccc(Cl)cc2)[C@@H](c2ccccc2[N+](=O)[O-])N1N1CCOCC1", "values": [{"measurement": "IC50", "setting": "[12]", "result": 7.92, "unit": "µM"}, {"measurement": "IC50", "setting": "[13]", "result": "> 500", "unit": "µM"}]}, {"molecule": "Cc1ccc(S(=O)(=O)N2C(=O)C(Cl)[C@H]2c2ccc(F)cc2)cc1", "note": "(some centres not stated)", "values": [{"measurement": "MIC", "setting": "[16]", "result": 0.5, "unit": "µg/mL"}, {"measurement": "MIC", "setting": "[17]", "result": 4, "unit": "µg/mL"}, {"measurement": "MIC", "setting": "[18]", "result": 1, "unit": "µg/mL"}, {"measurement": "MIC", "setting": "[19]", "result": 8, "unit": "µg/mL"}, {"measurement": "MIC", "setting": "[20]", "result": 2, "unit": "µg/mL"}, {"measurement": "MIC", "setting": "[21]", "result": 2, "unit": "µg/mL"}]}, {"molecule": "O=C1[C@@H](Oc2ccc(Cl)cc2Cl)[C@@H](c2ccc([N+](=O)[O-])cc2)N1CCCN1CCOCC1", "values": [{"measurement": "IC50", "setting": "[12]", "result": 4.14, "unit": "µM"}, {"measurement": "IC50", "setting": "[13]", "result": 291, "unit": "µM"}]}, {"molecule": "Cc1cc(NS(=O)(=O)c2ccc(N)cc2)no1", "note": "[SULFAMETHOXAZOLE]", "values": [{"measurement": "MIC", "setting": "[1]", "result": 4, "unit": "µg/mL"}, {"measurement": "MIC", "setting": "[2]", "result": 8, "unit": "µg/mL"}, {"measurement": "MIC", "setting": "[3]", "result": 16, "unit": "µg/mL"}, {"measurement": "MIC", "setting": "[4]", "result": 8, "unit": "µg/mL"}]}]}
